Reference: US20260232767A1, “INTERLEUKIN-23 RECEPTOR ANTAGONIST PEPTIDES FOR USE IN THE TREATMENT OF PSORIASIS” (Janssen Pharmaceutica NV, priority 2023, published 2026)

Test system: subjects with moderate-to-severe plaque psoriasis
Assay: Safety, adverse events, Example 2 through Week 56
Assay type: in vivo, human
Conditions: through Week 56
Source text: The LTE safety analysis was based on randomized participants in Example who entered the present long-term extension study and received at least one dose of study intervention (including a partial dose) during the study period.

[1] = Placebo → 100 mg QD after crossover

CC(=O)NCCCC[C@@H]1NC(=O)[C@H](Cc2c[nH]c3c(C)cccc23)NC(=O)[C@H]([C@@H](C)O)NC(=O)[C@H](CC(N)=O)NC(=O)[C@@H](NC(C)=O)C(C)(C)SSC(C)(C)[C@@H](C(=O)N[C@@H](Cc2ccc(OCCN)cc2)C(=O)N[C@@H](Cc2ccc3ccccc3c2)C(=O)NC2(C(=O)N[C@@H](CCC(=O)O)C(=O)N[C@@H](CC(N)=O)C(=O)N[C@@H](Cc3cccnc3)C(=O)N(C)CC(N)=O)CCOCC2)NC1=O [IL-23 receptor antagonist peptide, Ac-[Pen]*-N-T-[W(7-Me)]-[Lys(Ac)]-[Pen]*-Phe[4-(2-aminoethoxy)]-[2-Nal]-[THP]-E-N-[3-Pal]-Sarc-NH2 (*[Pen]-[Pen]* formdisulfidebond)]
(30.2%): Subjects with 1 or more Adverse events: Nasopharyngitis (50 mg QD)
(55.8%): Subjects with 1 or more Adverse events (25 mg QD)
(19.8%): Subjects with 1 or more Adverse events: Nasopharyngitis (Combined)
(2.4%): Subjects with 1 or more Adverse events: Alanine aminotransferase increased (25 mg BID) | Subjects with 1 or more Adverse events: Aspartate aminotransferase increased (25 mg BID) | Subjects with 1 or more Adverse events: Urinary tract infection (25 mg BID) | Subjects with 1 or more Serious adverse events: Ligament injury (25 mg BID) | Subjects with 1 or more Serious adverse events: Tonsillar hypertrophy (25 mg BID) | Subjects with 1 or more Serious adverse events: Ventricular dysfunction (25 mg BID) | Subjects with 1 or more Adverse events: Diarrhea (100 mg BID) | Subjects with 1 or more Adverse events: Headache (100 mg BID) | Subjects with 1 or more Adverse events: Influenza (100 mg BID) | Subjects with 1 or more Serious adverse events (100 mg BID) | Subjects with 1 or more Serious adverse events: Uterine leiomyoma (100 mg BID) | Subjects with 1 or more treatment-emergent adverse events leading to discontinuation of study agent (100 mg BID)
(4.5%): Subjects with 1 or more Adverse events: Diarrhea (Combined) | Subjects with 1 or more Serious adverse events (Combined)
(14.2%): Subjects with 1 or more Adverse events: COVID-19 (Combined)
(2.3%): Subjects with 1 or more Adverse events: Alanine aminotransferase increased (25 mg QD) | Subjects with 1 or more Adverse events: Arthralgia (25 mg QD) | Subjects with 1 or more Adverse events: Aspartate aminotransferase increased (25 mg QD) | Subjects with 1 or more Adverse events: Cough (25 mg QD) | Subjects with 1 or more Adverse events: Alanine aminotransferase increased (50 mg QD) | Subjects with 1 or more Adverse events: Arthralgia (50 mg QD) | Subjects with 1 or more Adverse events: Aspartate aminotransferase increased (50 mg QD) | Subjects with 1 or more Adverse events: Headache (50 mg QD) | Subjects with 1 or more Adverse events: Influenza (50 mg QD) | Subjects with 1 or more Adverse events: Urinary tract infection (50 mg QD) | Subjects with 1 or more Serious adverse events: Coronary artery disease (50 mg QD) | Subjects with 1 or more Serious adverse events: Foot deformity (50 mg QD) | Subjects with 1 or more Serious adverse events: Infected cyst (50 mg QD) | Subjects with 1 or more Serious adverse events: Non-cardiac chest pain (50 mg QD) | Subjects with 1 or more Adverse events: Diarrhea (100 mg QD) | Subjects with 1 or more Adverse events: Influenza (100 mg QD) | Subjects with 1 or more Serious adverse events: COVID-19 (100 mg QD) | Subjects with 1 or more Serious adverse events: Diverticulitis (100 mg QD) | Subjects with 1 or more Serious adverse events: Intervertebral disc protrusion (100 mg QD) | Subjects with 1 or more Serious adverse events: Suicide attempt (100 mg QD)
(25.7%): Subjects with 1 or more Adverse events: Nasopharyngitis [1]
(14.0%): Subjects with 1 or more Adverse events: COVID-19 (25 mg QD) | Subjects with 1 or more Adverse events: COVID-19 (50 mg QD)
(2.9%): Subjects with 1 or more Adverse events: Arthralgia [1] | Subjects with 1 or more Adverse events: Aspartate aminotransferase increased [1] | Subjects with 1 or more Adverse events: Bronchitis [1] | Subjects with 1 or more Adverse events: Diarrhea [1] | Subjects with 1 or more Adverse events: Influenza [1] | Subjects with 1 or more Serious adverse events [1] | Subjects with 1 or more Serious adverse events: Cerebrovascular accident [1]
(3.6%): Subjects with 1 or more Adverse events: Alanine aminotransferase increased (Combined) | Subjects with 1 or more Adverse events: Bronchitis (Combined)
(65.7%): Subjects with 1 or more Adverse events [1]
(3.2%): Subjects with 1 or more Adverse events: Arthralgia (Combined) | Subjects with 1 or more Adverse events: Cough (Combined) | Subjects with 1 or more Adverse events: Urinary tract infection (Combined)
(16.3%): Subjects with 1 or more Adverse events: Upper respiratory tract infection (25 mg QD)
(70.4%): Subjects with 1 or more Adverse events (Combined)
(19.5%): Subjects with 1 or more Adverse events: Nasopharyngitis (25 mg BID)
(76.2%): Subjects with 1 or more Adverse events (100 mg BID)
(7.3%): Subjects with 1 or more Adverse events: Headache (25 mg BID) | Subjects with 1 or more Adverse events: Influenza (25 mg BID) | Subjects with 1 or more Adverse events: Upper respiratory tract infection (25 mg BID) | Subjects with 1 or more Serious adverse events (25 mg BID)
(16.7%): Subjects with 1 or more Adverse events: COVID-19 (100 mg BID)
(11.6%): Subjects with 1 or more Adverse events: COVID-19 (100 mg QD) | Subjects with 1 or more Adverse events: Headache (100 mg QD)
(5.7%): Subjects with 1 or more Adverse events: Alanine aminotransferase increased [1] | Subjects with 1 or more Adverse events: COVID-19 [1] | Subjects with 1 or more Adverse events: Urinary tract infection [1]
(4.9%): Subjects with 1 or more Adverse events: Bronchitis (25 mg BID) | Subjects with 1 or more Adverse events: Diarrhea (25 mg BID) | Subjects with 1 or more treatment-emergent adverse events leading to discontinuation of study agent (25 mg BID) | Subjects with 1 or more Adverse events: Headache (Combined)
(0.4%): Subjects with 1 or more Serious adverse events: COVID-19 (Combined) | Subjects with 1 or more Serious adverse events: Cerebrovascular accident (Combined) | Subjects with 1 or more Serious adverse events: Coronary artery disease (Combined) | Subjects with 1 or more Serious adverse events: Diverticulitis (Combined) | Subjects with 1 or more Serious adverse events: Foot deformity (Combined) | Subjects with 1 or more Serious adverse events: Infected cyst (Combined) | Subjects with 1 or more Serious adverse events: Intervertebral disc protrusion (Combined) | Subjects with 1 or more Serious adverse events: Ligament injury (Combined) | Subjects with 1 or more Serious adverse events: Non-cardiac chest pain (Combined) | Subjects with 1 or more Serious adverse events: Suicide attempt (Combined) | Subjects with 1 or more Serious adverse events: Tonsillar hypertrophy (Combined) | Subjects with 1 or more Serious adverse events: Uterine leiomyoma (Combined) | Subjects with 1 or more Serious adverse events: Ventricular dysfunction (Combined)
(72.1%): Subjects with 1 or more Adverse events (100 mg QD)
(4.7%): Subjects with 1 or more Adverse events: Bronchitis (25 mg QD) | Subjects with 1 or more Adverse events: Diarrhea (25 mg QD) | Subjects with 1 or more Adverse events: Headache (25 mg QD) | Subjects with 1 or more Adverse events: Urinary tract infection (25 mg QD) | Subjects with 1 or more Adverse events: Cough (50 mg QD) | Subjects with 1 or more treatment-emergent adverse events leading to discontinuation of study agent (50 mg QD) | Subjects with 1 or more Adverse events: Upper respiratory tract infection (100 mg QD) | Subjects with 1 or more treatment-emergent adverse events leading to discontinuation of study agent (100 mg QD)
0: Subjects with Mouth ulceration | Subjects with Tendonitis
(11.9%): Subjects with 1 or more Adverse events: Nasopharyngitis (100 mg BID) | Subjects with 1 or more Adverse events: Upper respiratory tract infection (100 mg BID)
(11.4%): Subjects with 1 or more Adverse events: Upper respiratory tract infection [1]
(9.7%): Subjects with 1 or more Adverse events: Upper respiratory tract infection (Combined)
(2.8%): Subjects with 1 or more Adverse events: Aspartate aminotransferase increased (Combined) | Subjects with 1 or more Adverse events: Influenza (Combined)
(78.0%): Subjects with 1 or more Adverse events (25 mg BID)
(74.4%): Subjects with 1 or more Adverse events (50 mg QD)
(4.0%): Subjects with 1 or more treatment-emergent adverse events leading to discontinuation of study agent (Combined)
(7.0%): Subjects with 1 or more Adverse events: Nasopharyngitis (25 mg QD) | Subjects with 1 or more treatment-emergent adverse events leading to discontinuation of study agent (25 mg QD) | Subjects with 1 or more Adverse events: Upper respiratory tract infection (50 mg QD) | Subjects with 1 or more Serious adverse events (50 mg QD) | Subjects with 1 or more Adverse events: Arthralgia (100 mg QD) | Subjects with 1 or more Adverse events: Cough (100 mg QD) | Subjects with 1 or more Serious adverse events (100 mg QD)
(25.6%): Subjects with 1 or more Adverse events: Nasopharyngitis (100 mg QD)
(7.1%): Subjects with 1 or more Adverse events: Aspartate aminotransferase increased (100 mg BID)
(22.0%): Subjects with 1 or more Adverse events: COVID-19 (25 mg BID)
(9.5%): Subjects with 1 or more Adverse events: Alanine aminotransferase increased (100 mg BID)
(4.8%): Subjects with 1 or more Adverse events: Arthralgia (100 mg BID) | Subjects with 1 or more Adverse events: Cough (100 mg BID) | Subjects with 1 or more Adverse events: Urinary tract infection (100 mg BID)
(9.3%): Subjects with 1 or more Adverse events: Bronchitis (50 mg QD) | Subjects with 1 or more Adverse events: Diarrhea (50 mg QD)
